One data set deals with HeLa S3 cells. Kind of data set: MTT assay of HeLa S3 cells. Type of data set: cell-based, human. The settings on record: 24 h, 10% FBS/MEM, 37 °C, 5% CO2. Here is the method:
(§1) HeLa S3 and A549 cells (2.0 × 10^4 cells/well) were seeded on a 96-well plate (BD Falcon) in cell culture medium and incubated overnight at 37 °C under 5% CO2. Jurkat (2.0 × 10^4 cells/well), HeLa S3, and A549 cells were treated with 4 (0–25 μM) and CGP37157 (0–100 μM) for 1, 3, 6, 12, and 24 h at 37 °C under 5% CO2, after which a MTT solution in PBS (0.5%, 10 μL) was added to each well.
(§2) Figure S3. MTT assay of HeLa S3 cells (plain curves with filled circles) and A549 cells (dashed curves with filled squares) treated with CGP37157 (0–100 µM) in 10% FBS/MEM (HeLa S3 cells) and 10% FBS/DMEM (A549 cells) for 24 h at 37 °C under 5% CO 2.
(§3) Figure S4. MTT assay of Jurkat cells treated with inhibitors of programmed cell death; Z-VAD-fmk (an apoptosis inhibitor), necrostatin-1 (Nec-1: a necroptosis inhibitor), and 3-methyl adenine (3-MA, an autophagy inhibitor) in the presence of CGP37157 (100 µM, 12 h). Values are shown as the mean ± SD for three independent experiments. ** P < 0.01.
(§4) (also on this page, place not known: Cell viability (% control) CO2. 50 Cell viability (% control) 0300 00030 of)
(In general: Tetrazolium dyes change colour on reduction, which living cells bring about.)

The test system of the next data set is A549 cells. Briefly: MTT assay of A549 cells. Type of data set: cell-based, human. The settings on record: 24 h, 10% FBS/DMEM, 37 °C, 5% CO2. The protocol:
as §1, §2, §3, §4

For the next data set, the system named is mitofusin 1 (MFN1). Briefly: Western blot analysis of MFN1 in Jurkat cells. The settings on record: for MFN1 band intensity relative to absence of compound: Figure S8B, 12 h. In kind it is cell-based. The protocol:
In a 1.5 mL Eppendorf tube, Jurkat cells (1.0 × 10^6 cells) were incubated in the presence of 4 ([…]), CGP37157 (100 μM for 0–24 h or 0–100 μM for 12 h), and celastrol (0–10 μM for 24 h or 1 μM for 0–24 h) at 37 °C under 5% CO2. After the cells had been washed twice with PBS, the proteins were extracted by using RIPA buffer (Nacalai Tesque) and quantified using a Pierce BCA Protein Assay Kit (Thermo Scientific). Proteins (7.5 μg/well) for MFNs and DRP1 and proteins (5.0 μg/well) for GAPDH were used for sodium dodecyl sulfate–polyacrylamide gel electrophoresis (SDS–PAGE) (7.5% for MFNs and DRP1 and 10% for GAPDH) (Bio-Rad). After SDS–PAGE, the proteins were transferred to a polyvinylidene fluoride membrane (Merck Millipore) by using a semi dry blotter (Bio-Rad). The membrane was blocked with Blocking One solution (Nacalai Tesque) for 30 min at room temperature. After being blocked, the membrane was washed three times with 1× TBST and treated with primary antibodies overnight (at a dilution of 1/1000 for MFNs and DRP1 or 1/2000 for GAPDH) in a signal enhancer HIKARI-solution A (Nacalai Tesque). The membrane was washed three times with 1× TBST and treated with the anti-mouse or anti-rabbit IgG HRP-conjugated secondary antibody (at a dilution of 1/4000 for MFNs and DRP1 or 1/10000 for GAPDH) in 1× TBST for 60 min at room temperature. The protein signal was spotted with a Chemi-Lumi One Ultra solution (Nacalai Tesque) using the ChemiDoc MP system (Bio-Rad). […]
(A western blot detects proteins with antibodies after separation by electrophoresis.)

The subject of data set [1] is dynamin-related protein 1 (DRP1). Briefly: Western blot analysis of DRP1 in Jurkat cells. Type of data set: cell-based. Here is the method: In a 1.5 mL Eppendorf tube, Jurkat cells (1.0 × 10^6 cells) were incubated in the presence of 4 ([…]), CGP37157 (100 μM for 0–24 h or 0–100 μM for 12 h), and celastrol (0–10 μM for 24 h or 1 μM for 0–24 h) at 37 °C under 5% CO2. After the cells had been washed twice with PBS, the proteins were extracted by using RIPA buffer (Nacalai Tesque) and quantified using a Pierce BCA Protein Assay Kit (Thermo Scientific). Proteins (7.5 μg/well) for MFNs and DRP1 and proteins (5.0 μg/well) for GAPDH were used for sodium dodecyl sulfate–polyacrylamide gel electrophoresis (SDS–PAGE) (7.5% for MFNs and DRP1 and 10% for GAPDH) (Bio-Rad). After SDS–PAGE, the proteins were transferred to a polyvinylidene fluoride membrane (Merck Millipore) by using a semi dry blotter (Bio-Rad). The membrane was blocked with Blocking One solution (Nacalai Tesque) for 30 min at room temperature. After being blocked, the membrane was washed three times with 1× TBST and treated with primary antibodies overnight (at a dilution of 1/1000 for MFNs and DRP1 or 1/2000 for GAPDH) in a signal enhancer HIKARI-solution A (Nacalai Tesque). The membrane was washed three times with 1× TBST and treated with the anti-mouse or anti-rabbit IgG HRP-conjugated secondary antibody (at a dilution of 1/4000 for MFNs and DRP1 or 1/10000 for GAPDH) in 1× TBST for 60 min at room temperature. The protein signal was spotted with a Chemi-Lumi One Ultra solution (Nacalai Tesque) using the ChemiDoc MP system (Bio-Rad).

In a further data set the test system is Jurkat cells. Briefly: Intracellular uptake in Jurkat cells by ICP-MS. Type of data set: cell-based. The settings on record: 5 μM, 37 °C, 5% CO2, ICP-MS, n = 3. The protocol:
The time-dependent intracellular uptake of 4 into Jurkat cells was measured by ICP-MS (inductively coupled plasma-mass spectrometry). Jurkat cells were treated with 4 (5 μM) for 30 min, 1 h, 2 h, and 3 h at 37 °C under 5% CO2, washed three times with PBS, and lysed with nitric acid at 4 °C overnight. The lysates were diluted with H2O, and the samples were analyzed by ICP-MS.
In a 1.5 mL Eppendorf tube, Jurkat cells (1.0 × 10^6 cells) were treated with 4 (5 μM) for 0–3 h at 37 °C under 5% CO2 (n = 3). After the cells had been washed three times with PBS, HNO3 (60%, 0.5 mL) was added to the cells and the resulting solutions were incubated overnight at 4 °C. After centrifugation (15000 rpm, 4 °C, 10 min), the supernatant was transferred to a 15 mL tube, diluted with H2O (4.5 mL), and filtered. The number of iridium atoms was measured by ICP-MS (NexION300S, PerkinElmer).

The results in this text go back to article PMC9022229, “Induction of Paraptosis by Cyclometalated Iridium Complex-Peptide Hybrids and CGP37157 via a Mitochondrial Ca^2+ Overload Triggered by Membrane Fusion between Mitochondria and the Endoplasmic Reticulum” (Biochemistry, 2022).

Residues, ends and D or L forms follow the SMILES beside them. *: point of attachment. X1 = O=C(COc1ccc(-c2ccccn2)cc1)NCCCCCCCCN*

As usually defined, the EC50 is the concentration at which the effect is half-maximal. Low readings indicate higher potency in that assay, high ones lower potency in that assay. Consider `O=C1CSC(c2ccccc2Cl)c2cc(Cl)ccc2N1` (stereo not drawn) [CGP37157], for which the 50% effective concentration (EC50) with HeLa S3 cells worked out at 45 µM; with A549 cells it was 81 µM. For the same compound, the “Expression level of MFN1 (Figure 11B)” value with mitofusin 1 (MFN1) (CGP37157 100 μM, 1–6 h) was “weakly changed”. For the same compound, the “MFN1 band intensity relative to absence of compound” value was 1.1 in the data set on mitofusin 1 (MFN1) (CGP37157 10 µM); 1.1 with mitofusin 1 (MFN1) (CGP37157 20 µM); 0.92 in the data set with mitofusin 1 (MFN1) (CGP37157 50 µM); 0.80 with mitofusin 1 (MFN1) (CGP37157 80 µM); 0.63 in the data set with mitofusin 1 (MFN1) (CGP37157 100 µM). In addition, the “Expression level of DRP1 (Figure 11B)” value in data set [1] (CGP37157 100 μM, 1–6 h) was “somewhat upregulated”. Further, the “DRP1 band intensity relative to absence of compound” value was determined as 1.6 in data set [1] (Figure S8B, CGP37157 10 µM, 12 h); 1.7 in data set [1] (Figure S8B, CGP37157 20 µM, 12 h); 1.3 in data set [1] (Figure S8B, CGP37157 50 µM, 12 h); 1.4 in data set [1] (Figure S8B, CGP37157 80 µM, 12 h); 0.89 in data set [1] (Figure S8B, CGP37157 100 µM, 12 h).

`NCCCC[C@H](NC(=O)[C@H](CCCCN)NC(=O)[C@@H](N)CCCCN)C(=O)NCC(=O)NCC(=O)NCCCCCCCCNC(=O)COc1ccc(-c2ccccn2)cc1` [compound 4] (H-KKKGG-X1): the “Ir atom (intracellular amount)” value in the data set on Jurkat cells (30 min) turned out to be 0.64 ± 0.01 fmol/cell; in the data set on Jurkat cells (1 h) it was 1.3 ± 0.1 fmol/cell; in the data set on Jurkat cells (2 h), 1.2 ± 0.1 fmol/cell; in the data set with Jurkat cells (3 h), 1.5 ± 0.4 fmol/cell. The “Expression level of DRP1 (Figure 11A)” value in data set [1] (4 at 5 μM, 30 min to 1 h) is listed as “somewhat upregulated”. Besides, the “DRP1 band intensity relative to absence of compound” value in data set [1] (Figure S8A, 4 at 1 µM, 1 h per legend) was determined as 2.0; in data set [1] (Figure S8A, 4 at 2.5 µM, 1 h per legend), 2.5; in data set [1] (Figure S8A, 4 at 5 µM, 1 h per legend) it was 2.6; in data set [1] (Figure S8A, 4 at 10 µM, 1 h per legend) it was 2.6; in data set [1] (Figure S8A, 4 at 20 µM, 1 h per legend), 1.0.
